± gives the standard deviation of the averaged measurements.
Key:
Test in all cases: CTG-3D luminescence at 96 h relative to day-0 seeding control (ratio to day 0); higher = more growth / less cytotoxicity; PDxO 3D drug screen, 96 h, CTG-3D normalised to day-0 seeding control.
[1] = test system: HCI-024 (organoid from a breast cancer xenograft)
[2] = test system: HCI-003.E2 (organoid from an ER-positive breast cancer xenograft)
[3] = test system: HCI-019 (organoid from a triple-negative breast cancer xenograft)
[4] = test system: HCI-027 (organoid from a triple-negative breast cancer xenograft)
[5] = test system: HCI-023 (organoid from a triple-negative breast cancer xenograft)
[6] = test system: HCI-012 (organoid from a breast cancer xenograft)
[7] = test system: MDA-MB-231

Cc1cc(Nc2ncc(Cl)c(Nc3ccccc3S(=O)(=O)C(C)C)n2)c(OC(C)C)cc1C1CCNCC1 [ceritinib]
CTG-3D luminescence at 96 h
Conditions	12.5 pM	0.00025 µM	0.005 µM	0.1 µM	1 µM	10 µM	100 µM	625 fM
[1], days in culture: 105	1.05	1.3	1.22	1.29	1.11	0.00435	-0.0037	1.39
[1], days in culture: 122	1.49	2.05	1.23	1.88	1.16	0.00674	-0.00377	2.07
[1], days in culture: 163	2.38	2.03	1.59	2.47	1.74	0.107	-0.00554	2.78
[3], days in culture: 110	1.94	1.72	1.21	2.24	1.78	0.533	-0.00638	2.49
[3], days in culture: 131	2.4	3	2.64	3.8	2.36	0.0735	-0.00829	3.86
[3], days in culture: 152	2.83	2.4	1.79	1.51	1.37	0.01	-0.00373	2.52
[4], days in culture: 176	2.26	1.27	2.21	1.68	1.81	0.00647	-0.00642	2.34
[4], days in culture: 194	1.42	1.26	1.1	1.96	1.8	0.0105	-0.00633	1.39
[4], days in culture: 201	2.21	1.72	1.65	1.66	1.47	0.0089	-0.00463	1.31
[5], days in culture: 111	1.47	1.19	1.18	1.12	0.844	0.00455	-0.00268	1.19
[5], days in culture: 128	1.39 ± 0.21	1.2 ± 0.45	1.17 ± 0.21	1.65 ± 0.042	0.92736 ± 0.00061	0.00417 ± 0.0011	-0.00332 ± 0.00062	1.65 ± 0.49
[6], days in culture: 143	2.17	1.8	1.89	2.08	1.92	0.0093	-0.00596	2.32
[6], days in culture: 162	2.32	2.04	1.68	2.9	2.19	0.0143	-0.00682	2.82
[6], days in culture: 201	2.62	2.34	1.57	1.57	2.44	0.00702	-0.00682	1.54

CTG-3D luminescence at 96 h
Conditions	12.5 pM	0.00025 µM	0.005 µM	0.1 µM	1 µM	10 µM	100 µM	625 fM
[2]	2.16 ± 0.93	2.04 ± 0.61	1.82 ± 0.26	2.06 ± 0.46	2.05 ± 0.53	0.388 ± 0.58	0.0194 ± 0.046	2.21 ± 0.59
[7]	4.39 ± 1.4	4.39 ± 1.3	4.6 ± 1.5	4.48 ± 1.2	4.36 ± 1.4	0.0178 ± 0.0055	-0.011 ± 0.0032	4.51 ± 1.3

CCN1CCN(Cc2ccc(Nc3ncc(F)c(-c4cc(F)c5nc(C)n(C(C)C)c5c4)n3)nc2)CC1 [abemaciclib]
CTG-3D luminescence at 96 h
Conditions	12.5 pM	0.00025 µM	0.005 µM	0.1 µM	1 µM	10 µM	100 µM	625 fM
[1], days in culture: 105	1.51	1.33	1.28	1.48	1.25	0.994	0.0179	1.87
[1], days in culture: 122	2.26	2.43	1.7	1.89	1.62	2.1	0.0233	3.21
[1], days in culture: 163	1.45	2.01	1.71	2.45	1.94	1.38	0.0196	1.89
[3], days in culture: 110	2.26	1.44	1.96	2.43	1.42	0.433	0.016	2.64
[3], days in culture: 131	2.45	3.28	2.99	4.2	2.75	1.9	0.0216	2.87
[3], days in culture: 152	3.44	2.78	2.45	2.58	2.13	0.0403	0.012	2.48
[4], days in culture: 176	2.08	1.51	2.54	2.32	1.53	0.242	0.0171	1.82
[4], days in culture: 194	1.66	1.49	1.8	1.97	1.87	1.39	0.0205	1.89
[4], days in culture: 201	2.8	2.7	2.69	2.54	2.15	1.35	0.018	2.37
[5], days in culture: 111	1.62	1.22	1.3	1.11	0.658	0.377	0.00981	1.51
[5], days in culture: 128	1.77 ± 0.48	1.494 ± 0.0079	1.47 ± 0.046	1.52 ± 0.47	0.984 ± 0.17	1.15 ± 0.29	0.0139 ± 0.0041	1.84 ± 0.45
[6], days in culture: 143	2.22	2.41	2.02	2.72	1.59	0.427	0.0151	1.94
[6], days in culture: 162	2.88	2.54	2.02	3.34	1.83	1.5	0.0215	3.16
[6], days in culture: 201	2.81	2.22	1.75	1.73	2.31	1.47	0.0218	1.65

CTG-3D luminescence at 96 h
Conditions	12.5 pM	0.00025 µM	0.005 µM	0.1 µM	1 µM	10 µM	100 µM	625 fM
[2]	2.17 ± 0.76	2.14 ± 0.51	2.02 ± 0.48	2.27 ± 0.32	1.98 ± 0.34	0.491 ± 0.5	0.00596 ± 0.0057	1.87 ± 0.25
[7]	4.61 ± 1.4	4.47 ± 1.4	4.69 ± 1.5	4.48 ± 1.1	4.55 ± 1.2	3.73 ± 1.6	0.0487 ± 0.012	4.67 ± 1.3
